From patent US7435820B2, “Substituted tetrahydro-1H-pyrazolo [3,4-c]pyridines compositions comprising them, and use” (Aventis Pharma S.A., priority 2003, dated 2008)

Target: T1, human KDR enzyme (Homo sapiens, UniProt P35968)
T1 construct: The cytoplasmic domain of the human KDR enzyme was cloned in GST fusion form; GST; made in house; host or cells: SF21 insect cells (baculovirus, pFastBac)
Assay: KDR kinase inhibition: phosphorylation of PLCγ SH2-SH3 substrate by KDR enzyme, 33P-ATP scintillation plate
Format: biochemical
Conditions: Assay 1, read-out: KDR % Inhib at 10 μM Assay 1
Procedure: The inhibitory effect of the compounds is determined in an assay for phosphorylation of substrate by the KDR enzyme in vitro using a scintillation technique (96-well plate, NEN).
The cytoplasmic domain of the human KDR enzyme was cloned in GST fusion form into the baculovirus expression vector pFastBac. The protein was expressed in SF21 cells and purified to approximately 60% homogeneity. The KDR kinase activity is measured in 20 mM MOPS, 10 mM MgCl2, 10 mM MnCl2, 1 mM DTT, 2.5 mM EGTA, 10 mM b-glycerophosphate, pH=7.2, in the presence of 10 mM MgCl2, 100 μM Na3VO4 and 1 mM NaF. 10 μl of the compound are added to 70 μl of kinase buffer containing 100 ng of KDR enzyme at 4° C. The reaction is initiated by adding 20 μl of solution containing 2 μg of substrate (SH2-SH3 fragment of PLCγ expressed in the form of an GST fusion protein), 2 μCi γ ^33P[ATP] and 2 μM cold ATP. After incubation for 1 hour at 37° C., the reaction is stopped by adding 1 volume (100 μl) of 200 mM EDTA. The incubation buffer is removed and the wells are washed three times with 300 μl of PBS. The radioactivity is measured in each well using a Top Count NXT (Packard) radioactivity counter.
The background noise is determined by measuring the radioactivity in four different wells containing the radioactive ATP and the substrate alone.
A total activity control is measured in four different wells containing all the reagents (γ^33P-[ATP], KDR and PLC-γ substrate) but in the absence of compound.
The inhibition of the KDR activity with the compound of the invention is expressed as percentage inhibition of the control activity determined in the absence of compound.
The compound SU5614 (Calbiochem) (1 μM) is included in each plate as inhibition control.

T1 sequence (P35968 786-1356 limits assumed): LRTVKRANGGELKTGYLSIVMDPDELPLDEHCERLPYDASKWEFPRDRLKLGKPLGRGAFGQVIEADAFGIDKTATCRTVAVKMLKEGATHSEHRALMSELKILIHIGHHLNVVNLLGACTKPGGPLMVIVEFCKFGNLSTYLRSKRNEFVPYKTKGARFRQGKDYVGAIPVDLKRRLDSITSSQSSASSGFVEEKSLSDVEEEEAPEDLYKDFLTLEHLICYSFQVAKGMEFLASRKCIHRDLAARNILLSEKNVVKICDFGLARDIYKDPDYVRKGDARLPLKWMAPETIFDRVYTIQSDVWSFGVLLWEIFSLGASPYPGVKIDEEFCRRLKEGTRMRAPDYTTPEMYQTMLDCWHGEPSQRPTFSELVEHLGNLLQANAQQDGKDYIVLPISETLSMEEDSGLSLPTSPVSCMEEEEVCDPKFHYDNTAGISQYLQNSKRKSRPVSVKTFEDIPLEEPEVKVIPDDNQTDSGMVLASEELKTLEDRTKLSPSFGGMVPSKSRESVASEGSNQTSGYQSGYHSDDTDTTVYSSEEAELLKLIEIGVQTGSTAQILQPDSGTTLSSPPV

inhibition at 10 µM [%]	SMILES
71.4	Cc1cc2nc(-c3[nH]nc4c3CCN(C(=O)c3ccccc3Cc3ccccc3)C4)[nH]c2cc1C [Example P-31378-112-6]

Same assay, conditions: Assay 2, read-out: KDR % Inhib at 10 μM Assay 2

inhibition at 10 µM [%]	SMILES
68	Cc1cc2nc(-c3[nH]nc4c3CCN(C(=O)c3ccccc3Cc3ccccc3)C4)[nH]c2cc1C [Example P-31378-112-6]

Same assay, conditions: read-out: KDR % Inhib. 10 μM

SMILES	inhibition at 10 µM [%]
COc1ccccc1NC(=O)N1CCc2c(n[nH]c2-c2nc3cc(C)c(C)cc3[nH]2)C1 [Chemistry 67]	8.1
Cc1cc2nc(-c3[nH]nc4c3CCN(C(=O)c3ccc(S(C)(=O)=O)cc3)C4)[nH]c2cc1C [Chemistry 58]	27.9
Cc1cccc(S(=O)(=O)N2CCc3c(n[nH]c3-c3nc4cc(C)c(C)cc4[nH]3)C2)c1 [Chemistry 37]	41.2
Cc1ccc(S(=O)(=O)N2CCc3c(n[nH]c3-c3nc4cc(C)c(C)cc4[nH]3)C2)cc1 [Chemistry 35]	27.4
COc1cccc(S(=O)(=O)N2CCc3c(n[nH]c3-c3nc4cc(C)c(C)cc4[nH]3)C2)c1 [Chemistry 38]	20.9
Cc1cc2nc(-c3[nH]nc4c3CCN(C(=O)Nc3ccccc3Cl)C4)[nH]c2cc1C [Chemistry 61]	12.7
Cc1cc2nc(-c3[nH]nc4c3CCN(C(=O)Nc3ccccc3)C4)[nH]c2cc1C [Chemistry 59]	17.6
Clc1cccc(CN2CCc3c(n[nH]c3-c3nc4ccccc4[nH]3)C2)c1 [Chemistry 70]	92.1
Cc1cc2nc(-c3[nH]nc4c3CCN(S(=O)(=O)Cc3ccc(F)cc3)C4)[nH]c2cc1C [Chemistry 33]	57.7

More lines, now with the values ahead:

inhibition at 10 µM [%]	SMILES
85.5	Cc1cc2nc(-c3[nH]nc4c3CCN(Cc3ccccc3)C4)[nH]c2cc1C [Chemistry 8]
39.3	Cc1cc2nc(-c3[nH]nc4c3CCN(CC(C)(C)C)C4)[nH]c2cc1C [Chemistry 15]
42	Cc1cc2nc(-c3[nH]nc4c3CCN(C(=O)c3ccc(Cl)cc3)C4)[nH]c2cc1C [Chemistry 48]
-2.9	Cc1cc2nc(-c3[nH]nc4c3CCN(CCC(C)C)C4)[nH]c2cc1C [Chemistry 17]
38.7	C=CCC(=O)N1CCc2c(n[nH]c2-c2nc3cc(C)c(C)cc3[nH]2)C1 [Chemistry 51]
15.3	CCCCS(=O)(=O)N1CCc2c(n[nH]c2-c2nc3cc(C)c(C)cc3[nH]2)C1 [Chemistry 30]
2.1	Cc1cc2nc(-c3[nH]nc4c3CCN(CC(C)C)C4)[nH]c2cc1C [Chemistry 6]
79.5	Cc1cc2nc(-c3[nH]nc4c3CCN(Cc3cccc(Cl)c3Cl)C4)[nH]c2cc1C [Chemistry 10]
22.9	Cc1cc2nc(-c3[nH]nc4c3CCN(S(=O)(=O)CC(F)(F)F)C4)[nH]c2cc1C [Chemistry 27]
75.2	Cc1cc2nc(-c3[nH]nc4c3CCN(C(=O)c3cccs3)C4)[nH]c2cc1C [Chemistry 57]
12.2	Cc1cc2nc(-c3[nH]nc4c3CCN(C(=O)CC(C)C)C4)[nH]c2cc1C [Chemistry 49]
46.6	CCCCC(=O)N1CCc2c(n[nH]c2-c2nc3cc(C)c(C)cc3[nH]2)C1 [Chemistry 56]
-3.7	CCCN1CCc2c(n[nH]c2-c2nc3cc(C)c(C)cc3[nH]2)C1 [Chemistry 18]

Target: T2, human Tie2 (Homo sapiens, UniProt Q02763)
T2 construct: human Tie2 corresponding to amino acids 776-1124 of the intracellular domain was generated by PCR; made in house; host or cells: baculovirus expression system (vector pFastBacGT)
Assay: Tie2 kinase inhibition: phosphorylation of GST-PLC (SH2-SH3 fragments) by GST-Tie2, 33P-ATP flashplate
Format: biochemical
Conditions: Assay 1, read-out: Tie2 % Inhib at 10 μM (FRX) Assay 1
Procedure: The coding sequence of human Tie2 corresponding to amino acids 776-1124 of the intracellular domain was generated by PCR using the cDNA isolated from human placenta as model. This sequence was introduced into a baculovirus expression vector pFastBacGT in the form of a GST fusion protein.
The inhibitory effect of the molecules is determined in an assay for phosphorylation of PLC by Tie2 in the presence of GST-Tie2 purified to approximately 80% homogeneity. The substrate is made up of the SH2-SH3 fragments of PLC, the latter being expressed in the form of a GST fusion protein.
The kinase activity of Tie2 is measured in a 20 mM MOPS buffer, pH 7.2, containing 10 mM MgCl2, 10 mM MnCl2, 1 mM DTT and 10 mM of glycerophosphate. A reaction mixture made up of 70 μl of kinase buffer containing 100 ng of GST-Tie2 enzyme per well is placed in a flashplate 96-well plate kept on ice. 10 μl of the molecule to be tested, diluted in DMSO, at a concentration of at most 10% are then added. For a given concentration, each measurement is carried out in quadruplicate. The reaction is initiated by adding 20 μl of solution containing 2 μg of GST-PLC, 2 μM of cold ATP and 1 μCi of ^33P[ATP]. After incubation for 1 hour at 37° C., the reaction is stopped by adding 1 volume (100 μl) of 200 mM EDTA. After removal of the incubation buffer, the wells are washed three times with 300 μl of PBS. The radioactivity is measured on a Wallac MicroBeta 1450.
The inhibition of the Tie2 activity is calculated and expressed as percentage inhibition with respect to the control activity determined in the absence of compound.

T2 sequence (Q02763 776-1124): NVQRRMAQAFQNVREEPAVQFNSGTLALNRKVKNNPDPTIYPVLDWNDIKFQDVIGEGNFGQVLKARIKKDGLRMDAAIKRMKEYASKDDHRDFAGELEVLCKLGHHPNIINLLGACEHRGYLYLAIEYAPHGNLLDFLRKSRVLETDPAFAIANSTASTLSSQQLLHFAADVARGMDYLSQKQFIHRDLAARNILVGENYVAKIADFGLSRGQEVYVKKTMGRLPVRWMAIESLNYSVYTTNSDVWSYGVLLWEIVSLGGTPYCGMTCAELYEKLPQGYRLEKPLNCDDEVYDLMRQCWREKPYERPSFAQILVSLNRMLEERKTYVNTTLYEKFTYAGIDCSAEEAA

inhibition at 10 µM [%]	SMILES
92.7	Cc1cc2nc(-c3[nH]nc4c3CCN(C(=O)c3ccccc3Cc3ccccc3)C4)[nH]c2cc1C [Example P-31378-112-6]

Same assay, conditions: Assay 2, read-out: Tie2 % Inhib at 10 μM (FRX) Assay 2

inhibition at 10 µM [%]	SMILES
93.8	Cc1cc2nc(-c3[nH]nc4c3CCN(C(=O)c3ccccc3Cc3ccccc3)C4)[nH]c2cc1C [Example P-31378-112-6]

Same assay, conditions: read-out: Tie2 % Inhib. 10 μM

SMILES	inhibition at 10 µM [%]
COc1ccccc1NC(=O)N1CCc2c(n[nH]c2-c2nc3cc(C)c(C)cc3[nH]2)C1 [Chemistry 67]	18.1
Cc1cc2nc(-c3[nH]nc4c3CCN(C(=O)c3ccc(S(C)(=O)=O)cc3)C4)[nH]c2cc1C [Chemistry 58]	82.3
Cc1cccc(S(=O)(=O)N2CCc3c(n[nH]c3-c3nc4cc(C)c(C)cc4[nH]3)C2)c1 [Chemistry 37]	88.3
Cc1ccc(S(=O)(=O)N2CCc3c(n[nH]c3-c3nc4cc(C)c(C)cc4[nH]3)C2)cc1 [Chemistry 35]	88.8
COc1cccc(S(=O)(=O)N2CCc3c(n[nH]c3-c3nc4cc(C)c(C)cc4[nH]3)C2)c1 [Chemistry 38]	84.6
Cc1cc2nc(-c3[nH]nc4c3CCN(C(=O)Nc3ccccc3Cl)C4)[nH]c2cc1C [Chemistry 61]	3.75
Cc1cc2nc(-c3[nH]nc4c3CCN(C(=O)Nc3ccccc3)C4)[nH]c2cc1C [Chemistry 59]	33.2
Clc1cccc(CN2CCc3c(n[nH]c3-c3nc4ccccc4[nH]3)C2)c1 [Chemistry 70]	65.5
Cc1cc2nc(-c3[nH]nc4c3CCN(S(=O)(=O)Cc3ccc(F)cc3)C4)[nH]c2cc1C [Chemistry 33]	95.9

Other lines, results leading:

inhibition at 10 µM [%]	SMILES
64.3	Cc1cc2nc(-c3[nH]nc4c3CCN(Cc3ccccc3)C4)[nH]c2cc1C [Chemistry 8]
69.4	Cc1cc2nc(-c3[nH]nc4c3CCN(CC(C)(C)C)C4)[nH]c2cc1C [Chemistry 15]
83.8	Cc1cc2nc(-c3[nH]nc4c3CCN(C(=O)c3ccc(Cl)cc3)C4)[nH]c2cc1C [Chemistry 48]
50.7	Cc1cc2nc(-c3[nH]nc4c3CCN(CCC(C)C)C4)[nH]c2cc1C [Chemistry 17]
72.9	C=CCC(=O)N1CCc2c(n[nH]c2-c2nc3cc(C)c(C)cc3[nH]2)C1 [Chemistry 51]
44.2	CCCCS(=O)(=O)N1CCc2c(n[nH]c2-c2nc3cc(C)c(C)cc3[nH]2)C1 [Chemistry 30]
41.2	Cc1cc2nc(-c3[nH]nc4c3CCN(CC(C)C)C4)[nH]c2cc1C [Chemistry 6]
83.9	Cc1cc2nc(-c3[nH]nc4c3CCN(Cc3cccc(Cl)c3Cl)C4)[nH]c2cc1C [Chemistry 10]
65.4	Cc1cc2nc(-c3[nH]nc4c3CCN(S(=O)(=O)CC(F)(F)F)C4)[nH]c2cc1C [Chemistry 27]
94.6	Cc1cc2nc(-c3[nH]nc4c3CCN(C(=O)c3cccs3)C4)[nH]c2cc1C [Chemistry 57]
84.8	Cc1cc2nc(-c3[nH]nc4c3CCN(C(=O)CC(C)C)C4)[nH]c2cc1C [Chemistry 49]
92.5	CCCCC(=O)N1CCc2c(n[nH]c2-c2nc3cc(C)c(C)cc3[nH]2)C1 [Chemistry 56]
55	CCCN1CCc2c(n[nH]c2-c2nc3cc(C)c(C)cc3[nH]2)C1 [Chemistry 18]
